Columns and labels:
[1] = target: T1, human Menin and N-terminal portion of human MLL (amino acids 4-43) (Homo sapiens, UniProt O00255); experiment: Menin-MLL competition assay (HTRF); type: binding; details: 1 hr incubation
T1 construct: H-FL-Menin diluted to 4 nM in assay buffer
T1 sequence (O00255 1-610): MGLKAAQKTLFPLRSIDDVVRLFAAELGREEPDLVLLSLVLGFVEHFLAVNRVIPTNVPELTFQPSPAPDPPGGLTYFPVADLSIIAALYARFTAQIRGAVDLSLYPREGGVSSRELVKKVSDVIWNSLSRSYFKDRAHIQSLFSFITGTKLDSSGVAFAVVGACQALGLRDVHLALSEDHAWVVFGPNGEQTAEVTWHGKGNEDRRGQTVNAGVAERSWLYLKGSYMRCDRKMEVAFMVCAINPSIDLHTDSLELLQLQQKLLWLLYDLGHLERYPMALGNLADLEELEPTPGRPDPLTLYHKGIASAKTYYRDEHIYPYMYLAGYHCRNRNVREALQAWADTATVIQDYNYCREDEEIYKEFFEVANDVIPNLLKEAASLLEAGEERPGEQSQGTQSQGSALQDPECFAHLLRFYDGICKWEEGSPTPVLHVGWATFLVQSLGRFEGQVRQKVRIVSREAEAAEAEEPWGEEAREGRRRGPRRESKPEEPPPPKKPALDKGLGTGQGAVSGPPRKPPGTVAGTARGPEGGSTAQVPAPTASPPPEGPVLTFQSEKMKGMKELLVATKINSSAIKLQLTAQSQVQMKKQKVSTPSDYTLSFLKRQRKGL
Text: Menin-MLL is a competition assay between human Menin and N-terminal portion of human MLL representing amino acids 4-43 of the protein. The interaction between Menin and MLL peptide was monitored by HTRF employing Terbium labeled anti-His6 antibody directed to the N-terminal His6-tag on recombinant Menin and FITC group covalently attached to the MLL peptide. The N-terminal fragment of MLL, retained in all MLL fusion proteins, is involved in the interactions with Menin, and this protein-protein interaction is critical for the MLL fusion proteins mediated leukemogenic transformations.
For IC50 determination test compounds were prepared as 10 mM DMSO stock solutions. Considering DMSO as the vehicle in the assay system. Lower sub-stocks of 50 μM were prepared from the 10 mM stock solution. To test the compounds in assay, 3.16-fold serial dilutions are made in 100% DMSO. Mid-stock of 50×compounds (50 μM) were serially diluted (3.16 fold) in 100% DMSO in Polypropylene plate. In assay plate 1 micro-litre of the previously prepared compound dilution was stamped. H-FL-Menin diluted to 4 nM in assay buffer (50 mM Tris-HCl, pH 7.4, 50 mM NaCl, freshly prepared 1 mM DTT, 0.01% BSA, 0.005% Triton X-100) was pre-incubated with 8 nM anti-His6-Tb for 30 min at room temperature. FITC-MLL-4-43 was diluted to 2 nM in assay buffer and 25 μL was dispensed into each well of the assay plate followed by addition of 25 μl of pre-incubated H-FL-Menin and anti-His6-Tb mixture. Final concentration H-FL-Menin diluted to 1 nM in assay plate with 2 nM anti-His6-Tb and 1 nM FITC-MLL-4-43. After 1 hr incubation at room temperature, the HTRF signal was measured on the Spark multi-label plate reader. Resulting data were captured as a ratio of RFU520/RFU485×1000. The max values were obtained from 0% inhibition in presence of 2% DMSO and the min. values were 100% inhibition in presence of 1 μM reference compound.

[2] = test system: MLLr leukemia cell line MV4-11; experiment: Cell proliferation assay MV4;11 (CellTiter-Glo, 72 hours); type: cell-based; details: Homo sapiens; MV4-11 cells, 72 hours, CellTiter-Glo; read-out: MV4; 11 IC50
How it was run: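 Cells in IMDM/10% FBS, seeded from a 15,000 cells/ml suspension, were exposed for 72 h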

hERG = hERG (Homo sapiens, UniProt Q12809); experiment: Patch clamp assay (hERG tail currents, whole-cell)
Sequence of hERG (Q12809 whole entry): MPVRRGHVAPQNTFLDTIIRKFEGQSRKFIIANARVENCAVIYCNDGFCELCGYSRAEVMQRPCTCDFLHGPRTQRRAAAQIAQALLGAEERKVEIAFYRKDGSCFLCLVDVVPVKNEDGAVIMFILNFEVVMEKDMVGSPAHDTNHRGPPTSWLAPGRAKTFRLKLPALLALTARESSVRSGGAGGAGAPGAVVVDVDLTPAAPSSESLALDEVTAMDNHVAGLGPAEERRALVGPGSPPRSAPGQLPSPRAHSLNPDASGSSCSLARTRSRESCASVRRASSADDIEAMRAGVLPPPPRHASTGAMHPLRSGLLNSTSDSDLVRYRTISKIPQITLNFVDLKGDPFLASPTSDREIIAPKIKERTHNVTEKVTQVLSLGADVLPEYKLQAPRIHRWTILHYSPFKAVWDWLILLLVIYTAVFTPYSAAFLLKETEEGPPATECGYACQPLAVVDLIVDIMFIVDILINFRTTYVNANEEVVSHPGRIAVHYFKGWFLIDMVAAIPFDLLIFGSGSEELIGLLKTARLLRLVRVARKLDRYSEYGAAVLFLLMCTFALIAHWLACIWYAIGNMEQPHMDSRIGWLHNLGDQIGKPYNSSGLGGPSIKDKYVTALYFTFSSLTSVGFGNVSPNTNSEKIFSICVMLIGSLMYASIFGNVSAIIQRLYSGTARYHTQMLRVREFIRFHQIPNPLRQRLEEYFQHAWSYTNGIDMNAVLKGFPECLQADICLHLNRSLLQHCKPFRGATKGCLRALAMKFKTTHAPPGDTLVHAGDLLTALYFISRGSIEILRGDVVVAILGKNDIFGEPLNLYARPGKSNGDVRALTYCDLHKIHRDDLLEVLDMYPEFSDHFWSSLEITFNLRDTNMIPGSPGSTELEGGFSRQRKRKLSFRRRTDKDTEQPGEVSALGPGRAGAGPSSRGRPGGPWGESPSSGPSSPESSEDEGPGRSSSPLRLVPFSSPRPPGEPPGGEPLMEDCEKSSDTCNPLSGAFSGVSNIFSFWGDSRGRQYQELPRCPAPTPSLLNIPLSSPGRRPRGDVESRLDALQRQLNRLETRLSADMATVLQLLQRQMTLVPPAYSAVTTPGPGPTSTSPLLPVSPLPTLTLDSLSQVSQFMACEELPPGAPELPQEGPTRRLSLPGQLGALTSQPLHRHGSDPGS

SMILES	IC50 [1] [nM]	also measured
C[C@@H]1COC[C@H](C)N1C(=O)c1cc(F)ccc1Oc1cncnc1N1CC2(CCN(C[C@@H]3CC[C@@H](NS(=O)(=O)C4CC4)CO3)CC2)C1 [Example 26, N-((3R,6S)-6-((2-(5-(2-((3S,5R)-3,5-Dimethylmorpholine-4-carbonyl)-4-fluorophenoxy)pyrimidin-4-yl)-2,7-diazaspiro[3.5]nonan-7-yl)methyl)tetrahydro-2H-pyran-3-yl)cyclopropanesulfonamide]	< 100	
C[C@@H]1COC[C@H](C)N1C(=O)c1cc(F)ccc1Oc1cncnc1N1CC2(CCN(C[C@@H]3CC[C@@H](NS(=O)(=O)C4COC4)CO3)CC2)C1 [Example 27, N-((3R,6S)-6-((2-(5-(2-((3S,5R)-3,5-Dimethylmorpholine-4-carbonyl)-4-fluorophenoxy)pyrimidin-4-yl)-2,7-diazaspiro[3.5]nonan-7-yl)methyl)tetrahydro-2H-pyran-3-yl)oxetane-3-sulfonamide]	< 100	
CCN(C(=O)c1cc(F)ccc1Oc1cncnc1N1CC2(CCN(C[C@@H]3CC[C@@H](NS(=O)(=O)CCOC)CO3)CC2)C1)C(C)C [Example 8, N-Ethyl-5-fluoro-N-isopropyl-2-((4-(7-(((2S,5R)-5-((2-methoxyethyl)sulfonamido)tetrahydro-2H-pyran-2-yl)methyl)-2,7-diazaspiro[3.5]nonan-2-yl)pyrimidin-5-yl)oxy)benzamide]	< 100	
CCN(C(=O)c1cc(F)ccc1Oc1cncnc1N1CC2(CCN(C[C@@H]3CC[C@@H](NS(=O)(=O)C4COC4)CO3)CC2)C1)C(C)C [Example 5, N-Ethyl-5-fluoro-N-isopropyl-2-((4-(7-(((2S,5R)-5-(oxetane-3-sulfonamido)tetrahydro-2H-pyran-2-yl)methyl)-2,7-diazaspiro[3.5]nonan-2-yl)pyrimidin-5-yl)oxy)benzamide]	< 100	
CC(C)S(=O)(=O)N[C@@H]1CC[C@@H](CN2CCC3(CC2)CN(c2ncncc2Oc2ccc(F)cc2C(=O)N2[C@H](C)COC[C@@H]2C)C3)OC1 [Example 25, N-((3R,6S)-6-((2-(5-(2-((3S,5R)-3,5-Dimethylmorpholine-4-carbonyl)-4-fluorophenoxy)pyrimidin-4-yl)-2,7-diazaspiro[3.5]nonan-7-yl)methyl)tetrahydro-2H-pyran-3-yl)propane-2-sulfonamide]	< 100	
CCN(C(=O)c1cc(F)ccc1Oc1cncnc1N1CC2(CCN(C[C@@H]3CC[C@@H](NS(=O)(=O)C(C)C)CO3)CC2)C1)C(C)C [Example 3, N-Ethyl-5-fluoro-N-isopropyl-2-((4-(7-(((2S,5R)-5-((1-methylethyl)sulfonamido)tetrahydro-2H-pyran-2-yl)methyl)-2,7-diazaspiro[3.5]nonan-2-yl)pyrimidin-5-yl)oxy)benzamide]	< 100	
CCS(=O)(=O)N[C@@H]1CC[C@@H](CN2CCC3(CC2)CN(c2ncncc2Oc2ccc(F)cc2C(=O)N2[C@H](C)CCC[C@@H]2C)C3)OC1 [Example 36, N-((3R,6S)-6-((2-(5-(2-((2S,6R)-2,6-Dimethylpiperidine-1-carbonyl)-4-fluorophenoxy)pyrimidin-4-yl)-2,7-diazaspiro[3.5]nonan-7-yl)methyl)tetrahydro-2H-pyran-3-yl)ethanesulfonamide]	< 100	
CCS(=O)(=O)N[C@@H]1CC[C@@H](CN2CCC3(CC2)CN(c2ncncc2Oc2ccc(F)cc2C(=O)N(C(C)C)C2COC2)C3)OC1 [Example 48, 2-((4-(7-(((2S,5R)-5-(Ethylsulfonamido)tetrahydro-2H-pyran-2-yl)methyl)-2,7-diazaspiro[3.5]nonan-2-yl)pyrimidin-5-yl)oxy)-5-fluoro-N-isopropyl-N-(oxetan-3-yl)benzamide]	< 100	
C[C@@H]1COC[C@@H](C)N1C(=O)c1cc(F)ccc1Oc1cncnc1N1CC2(CCN(C[C@@H]3CC[C@@H](NS(=O)(=O)C4COC4)CO3)CC2)C1 [Example 32, N-((3R,6S)-6-((2-(5-(2-((3R,5R)-3,5-Dimethylmorpholine-4-carbonyl)-4-fluorophenoxy)pyrimidin-4-yl)-2,7-diazaspiro[3.5]nonan-7-yl)methyl)tetrahydro-2H-pyran-3-yl)oxetane-3-sulfonamide]	< 100	
CCN(C(=O)c1cc(F)ccc1Oc1cncnc1N1CC2(CCN(C[C@@H]3CC[C@@H](NC(=O)NCC4CC4)CO3)CC2)C1)C(C)C [Example 42, 2-((4-(7-(((2S,5R)-5-(3-(Cyclopropylmethyl)ureido)tetrahydro-2H-pyran-2-yl)methyl)-2,7-diazaspiro[3.5]nonan-2-yl)pyrimidin-5-yl)oxy)-N-ethyl-5-fluoro-N-isopropylbenzamide]	< 100	
CCS(=O)(=O)N[C@@H]1CC[C@@H](CN2CCC3(CC2)CN(c2ncncc2Oc2ccc(F)cc2C(=O)N2[C@H](C)COC[C@H]2C)C3)OC1 [Example 29, N-((3R,6S)-6-((2-(5-(2-((3R,5R)-3,5-Dimethylmorpholine-4-carbonyl)-4-fluorophenoxy)pyrimidin-4-yl)-2,7-diazaspiro[3.5]nonan-7-yl)methyl)tetrahydro-2H-pyran-3-yl)ethanesulfonamide]	< 100	
C[C@@H]1COC[C@@H](C)N1C(=O)c1cc(F)ccc1Oc1cncnc1N1CC2(CCN(C[C@@H]3CC[C@@H](NS(C)(=O)=O)CO3)CC2)C1 [Example 28, N-((3R,6S)-6-((2-(5-(2-((3R,5R)-3,5-Dimethylmorpholine-4-carbonyl)-4-fluorophenoxy)pyrimidin-4-yl)-2,7-diazaspiro[3.5]nonan-7-yl)methyl)tetrahydro-2H-pyran-3-yl)methanesulfonamide]	< 100	
CCN(C(=O)c1cc(F)ccc1Oc1cncnc1N1CC2(CCN(C[C@@H]3CC[C@@H](NS(=O)(=O)CC4CC4)CO3)CC2)C1)C(C)C [Example 7, 2-((4-(7-(((2S,5R)-5-((Cyclopropylmethyl)sulfonamido)tetrahydro-2H-pyran-2-yl)methyl)-2,7-diazaspiro[3.5]nonan-2-yl)pyrimidin-5-yl)oxy)-N-ethyl-5-fluoro-N-isopropylbenzamide]	< 100	
CCN(C(=O)c1cc(F)ccc1Oc1cncnc1N1CC2(CCN(C[C@@H]3CC[C@@H](NS(=O)(=O)c4cnn(C)c4)CO3)CC2)C1)C(C)C [Example 68, N-Ethyl-5-fluoro-N-isopropyl-2-((4-(7-(((2S,5R)-5-((1-methyl-1H-pyrazole)-4-sulfonamido)tetrahydro-2H-pyran-2-yl)methyl)-2,7-diazaspiro[3.5]nonan-2-yl)pyrimidin-5-yl)oxy)benzamide]		IC50 [2]: < 100 nM; hERG % Remaining (hERG; 10 μM compound): +++ (≥66%); hERG % Remaining (hERG; 30 μM compound): +++ (≥66%)
C[C@@H]1COC[C@@H](C)N1C(=O)c1cc(F)ccc1Oc1cncnc1N1CC2(CCN(C[C@@H]3CC[C@@H](NS(=O)(=O)N4CCC[C@H]4C)CO3)CC2)C1 [Example 208, (R)-N-((3R,6S)-6-((2-(5-(2-((3R,5R)-3,5-Dimethylmorpholine-4-carbonyl)-4-fluorophenoxy)pyrimidin-4-yl)-2,7-diazaspiro[3.5]nonan-7-yl)methyl)tetrahydro-2H-pyran-3-yl)-2-methylpyrrolidine-1-sulfonamide]		IC50 [2]: < 100 nM; hERG % Remaining (hERG; 30 μM compound): +++ (≥66%)
CC(C)N(C(=O)c1cc(F)ccc1Oc1cncnc1N1CC2(CCN(C[C@@H]3CC[C@@H](NS(=O)(=O)c4cnn(C)c4Cl)CO3)CC2)C1)C(C)C [Example 82, 2-((4-(7-(((2S,5R)-5-((5-Chloro-1-methyl-1H-pyrazole)-4-sulfonamido)tetrahydro-2H-pyran-2-yl)methyl)-2,7-diazaspiro[3.5]nonan-2-yl)pyrimidin-5-yl)oxy)-5-fluoro-N,N-diisopropylbenzamide]		IC50 [2]: < 100 nM; hERG % Remaining (hERG; 10 μM compound): ++ (233% and ≤66%); hERG % Remaining (hERG; 30 μM compound): + (<33%)
